Measured values published in patent publication US12697343B2, “Intravenous istaroxime for the treatment of acute heart failure” (Seismic Pharmaceuticals Operations LLC, priority 2021, dated 2026).
Where a name gives a salt, the structure may show the parent alone.

System: patients hospitalized for acute heart failure (AHF)
Assay: Clinical secondary endpoints: in-hospital worsening heart failure to day 4, readmissions/ED visits to day 30, length of stay
Type: in vivo, human
Protocol: The primary efficacy endpoint was the change from baseline to 24 h after the start of the infusion in the E/e ratio assessed by tissue Doppler echocardiography. Secondary endpoints included the change from baseline to 24 h of other echocardiography parameters: LVEF, left ventricular end-systolic and end-diastolic volumes, stroke volume index, E, A, E/A ratio, and S′: changes in dyspnoea by visual analogue scale (VAS) and in NT-proBNP from baseline to 24 h: proportion of patients with hospital readmissions or emergency visits for cardiovascular reasons by day 30; proportion of patients with episodes of in-hospital worsening heart failure to day 4, and length of stay. In-hospital worsening heart failure was defined by the need to increase the dose or reinitiate intravenous therapy with diuretics and/or other inotropic agents to day 4. Safety endpoints were assessed throughout the study and included: incidence of adverse events (AEs): change in vital signs and in 12-lead electrocardiographic (ECG) parameters: incidence of clinically or haemodynamically significant episodes of supraventricular or ventricular arrhythmias detected by continuous ECG monitoring: standard laboratory parameters: renal function: cardiac troponin T (cTnT): incidence of cTnT elevations, and mortality at day 30. Elevations in cTnT were considered significant if they were >50% or >20% from baseline values, for patients with cTnT below or above the 99% upper reference limit at baseline, respectively.
The study was designed as a mechanistic and safety study to assess the effects of a 24 h istaroxime infusion in patients hospitalized for AHF. Based on the changes observed in the HORIZON-HF trial, we assumed that a sample size of at least 20 patients in the placebo group in each cohort with 2:1 randomization to istaroxime would provide sufficient power to assess the effect of istaroxime on the main haemodynamic parameters. Analyses were conducted using a pre-specified modified intention-to-treat (mITT) protocol, including all randomized patients in whom study drug infusion had been initiated and with at least […] available evaluation of efficacy after the baseline. Biomarker and eGFR values were analyzed using medians and inner/outer quartiles, and active treatment was compared to placebo using the Wilcoxon rank-sum test. Dyspnoea scores by VAS were analyzed using mixed model regression with treatment, center, time point, gender, baseline cTnT, presence of atrial fibrillation, treatment by time point interaction, baseline value, and baseline value by time point interaction in the model. Echocardiographic parameters were compared between treatment groups using linear regression with treatment in the model. Categorical variables were summarized as frequency and percent and compared between treatment groups using the Cochran-Mantel-Haenszel test, controlling for study site. AEs were recorded for all enrolled patients and were summarized as AEs, serious AEs (SAEs), AEs leading to discontinuation, and SAEs leading to death. All analyses were conducted using the SAS® System for Windows™, versions 9.1.3 and 9.4.

## C[C@]12CCC(=NOCCN)C[C@@H]1C(=O)C[C@@H]1[C@@H]2CC[C@]2(C)C(=O)CC[C@@H]12 [Istaroxime, (E,Z)-3-((2-aminoethoxy)imino)androstane-6,17-dione hydrochloride]
0.5 μg/Kg/min
  Length of stay, median: 7.0 days
0.5 μg/Kg/min (n = 41)
  Hospital readmission/ED visits to Day 30, count of patients: 4
  Hospital readmission/ED visits to Day 30, percent of patients: (9.8%)
  Worsening heart failure to day 4, count of patients: 1
  Worsening heart failure to day 4, percent of patients: (2.4%)
1.0 μg/Kg/min
  Length of stay, median: 7.0 days
1.0 μg/Kg/min (n = 40)
  Hospital readmission/ED visits to Day 30, count of patients: 4
  Hospital readmission/ED visits to Day 30, percent of patients: (10%)
  Worsening heart failure to day 4, count of patients: 3
  Worsening heart failure to day 4, percent of patients: (7.5%)
